Measurements: patent US20250320224A1 (DOMAIN THERAPEUTICS, priority 2022, published 2025)

target: T1, human PAR-2 (hPAR-2) receptor (Homo sapiens, UniProt P55085); assay: In vitro human PAR-2 functional antagonist activity using calcium assays; type: cell-based; conditions: hPAR-2 endogenously expressed in HEK-293 cells; stimulated by 2-Furoyl-LIGRLO-NH2 peptide; Fluo4AM intracellular calcium, FLIPR Tetra
T1 construct: expressed in HEK-293 cells in an endogenous manner; endogenous in cells; host or cells: HEK-293
T1 sequence (P55085 26-397): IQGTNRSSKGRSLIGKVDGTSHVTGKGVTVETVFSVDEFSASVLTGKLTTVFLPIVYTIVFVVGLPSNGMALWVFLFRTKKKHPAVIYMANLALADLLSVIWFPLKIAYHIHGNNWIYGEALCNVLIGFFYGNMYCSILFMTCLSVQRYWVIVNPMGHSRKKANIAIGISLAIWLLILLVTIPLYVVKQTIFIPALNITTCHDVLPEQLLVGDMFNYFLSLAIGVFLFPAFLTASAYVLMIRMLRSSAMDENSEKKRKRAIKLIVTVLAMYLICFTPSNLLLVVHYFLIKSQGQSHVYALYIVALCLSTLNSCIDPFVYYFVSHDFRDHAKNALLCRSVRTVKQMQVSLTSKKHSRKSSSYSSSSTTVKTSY
Outline: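 Antagonism was measured as reduced calcium response to 2-Furoyl-LIGRLO-NH2 (dosed at its 80%-of-maximum concentration), recorded for 5 min. This followed a 10 min compound pre-incubation on Fluo4AM-loaded HEK-293 cells expressing native hPAR-2. Signals were normalised to buffer and agonist-alone controls.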

Row | Structure (SMILES) | IC50
1 | CC1(C)CN(c2ccc(Cl)c(F)c2)c2ccc(C(=O)N3CCC4(C3)C(=O)Nc3ccccc34)nc21 (centres unmarked) [Example 120, 1′-(1-(4-chloro-3-fluorophenyl)-3,3-dimethyl-2,3-dihydro-1H-pyrrolo[3,2-b]pyridine-5-carbonyl)spiro[indoline-3,3′-pyrrolidin]-2-one] | > 10000 nM
2 | CC1(C)CN(c2ccc(Cl)c(F)c2)c2ccc(C(=O)N3CCC4(CC3)CNC(=O)O4)nc21 [Example 121, 8-(1-(4-chloro-3-fluorophenyl)-3,3-dimethyl-2,3-dihydro-1H-pyrrolo[3,2-b]pyridine-5-carbonyl)-1-oxa-3,8-diazaspiro[4.5]decan-2-one] | 500 to 10000 nM
3 | CC1(C)CN(c2ccc(Cl)c(F)c2)c2ccc(C(=O)N3CC4(C3)CN(c3ccc(C(=O)O)cn3)C4)nc21 [Example 123, 6-(6-(1-(4-chloro-3-fluorophenyl)-3,3-dimethyl-2,3-dihydro-1H-pyrrolo[3,2-b]pyridine-5-carbonyl)-2,6-diazaspiro[3.3]heptan-2-yl)nicotinic acid] | > 10000 nM
4 | O=C(O)CC1CCN(C(=O)c2ccc3c(n2)C2(CCC2)CN3c2ccc(Cl)c(F)c2)CC1 [Example 125, 2-(1-(1′-(4-chloro-3-fluorophenyl)-1′,2′-dihydrospiro[cyclobutane-1,3′-pyrrolo[3,2-b]pyridine]-5′-carbonyl)piperidin-4-yl)acetic acid] | 500 to 10000 nM
5 | CC1(C)C(=O)NCCN1C(=O)c1ccc2c(n1)C1(CCC1)CN2c1ccc(Cl)c(F)c1 [Example 126, 4-(1′-(4-chloro-3-fluorophenyl)-1′,2′-dihydrospiro[cyclobutane-1,3′-pyrrolo[3,2-b]pyridine]-5′-carbonyl)-3,3-dimethylpiperazin-2-one] | < 500 nM
6 | CC1(C)CN(c2ccc(CC(=O)O)cn2)CCN1C(=O)c1ccc2c(n1)C1(CN2c2ccc(Cl)c(F)c2)CC(F)(F)C1 [Example 128, 2-(6-(4-(1′-(4-chloro-3-fluorophenyl)-3,3-difluoro-1′,2′-dihydrospiro[cyclobutane-1,3′-pyrrolo[3,2-b]pyridine]-5′-carbonyl)-3,3-dimethylpiperazin-1-yl)pyridin-3-yl)acetic acid] | < 500 nM
7 | Cc1cc(N2CCN(C(=O)c3ccc(N4CC(C)(C)c5nc(C(=O)N6CCN(c7cc(C)c(C(=O)O)c(C)n7)CC6(C)C)ccc54)nc3)C(C)(C)C2)nc(C)c1C(=O)O [Example 133, 6-(4-(6-(5-(4-(5-carboxy-4,6-dimethylpyridin-2-yl)-2,2-dimethylpiperazine-1-carbonyl)-3,3-dimethyl-2,3-dihydro-1H-pyrrolo[3,2-b]pyridin-1-yl)nicotinoyl)-3,3-dimethylpiperazin-1-yl)-2,4-dimethylnicotinic acid] | > 10000 nM
8 | Cc1cc(N2CCN(C(=O)c3ccc4c(n3)C(C)(C)CN4c3ccc(Cl)cn3)C(C)(C)C2)nc(C)c1C(=O)O [Example 134, 6-(4-(1-(5-chloropyridin-2-yl)-3,3-dimethyl-2,3-dihydro-1H-pyrrolo[3,2-b]pyridine-5-carbonyl)-3,3-dimethylpiperazin-1-yl)-2,4-dimethylnicotinic acid] | < 500 nM
9 | COC(=O)c1c(C)cc(N2CCN(C(=O)c3ccc4c(n3)C(C)(C)CN4c3ccccn3)C(C)(C)C2)nc1C [Example 135, methyl 6-(4-(3,3-dimethyl-1-(pyridin-2-yl)-2,3-dihydro-1H-pyrrolo[3,2-b]pyridine-5-carbonyl)-3,3-dimethylpiperazin-1-yl)-2,4-dimethylnicotinate] | 500 to 10000 nM
10 | Cc1ccc(N2CCN(C(=O)c3ccc4c(n3)C(C)(C)CN4c3ccc(Cl)c(F)c3)C(C)(C)C2)nc1C(=O)O [Example 140, 6-(4-(1-(4-chloro-3-fluorophenyl)-3,3-dimethyl-2,3-dihydro-1H-pyrrolo[3,2-b]pyridine-5-carbonyl)-3,3-dimethylpiperazin-1-yl)-3-methylpicolinic acid] | < 500 nM
11 | COc1ncc(N2CCN(C(=O)c3ccc4c(n3)C(C)(C)CN4c3ccc(Cl)c(F)c3)C(C)(C)C2)cc1C(=O)O [Example 142, 5-(4-(1-(4-chloro-3-fluorophenyl)-3,3-dimethyl-2,3-dihydro-1H-pyrrolo[3,2-b]pyridine-5-carbonyl)-3,3-dimethylpiperazin-1-yl)-2-methoxynicotinic acid] | < 500 nM
12 | CO[C@@H]1CCC2(C1)CN(c1ccc(Cl)c(F)c1)c1ccc(C(=O)N3CCN(c4cc(C)c(C(=O)O)c(C)n4)CC3(C)C)nc12 (stereo partly drawn) [Example 144, 6-(4-((3R)-1′-(4-chloro-3-fluorophenyl)-3-methoxy-1′,2′-dihydrospiro[cyclopentane-1,3′-pyrrolo[3,2-b]pyridine]-5′-carbonyl)-3,3-dimethylpiperazin-1-yl)-2,4-dimethylnicotinic acid] | < 500 nM
13 | CO[C@H]1CCC2(C1)CN(c1ccc(Cl)c(F)c1)c1ccc(C(=O)N3CCN(c4cc(C)c(C(=O)O)c(C)n4)CC3(C)C)nc12 (stereo partly drawn) [Example 146, 6-(4-((3S)-1′-(4-chloro-3-fluorophenyl)-3-methoxy-1′,2′-dihydrospiro[cyclopentane-1,3′-pyrrolo[3,2-b]pyridine]-5′-carbonyl)-3,3-dimethylpiperazin-1-yl)-2,4-dimethylnicotinic acid] | < 500 nM
14 | CCC1(CC)CN(c2ccc(Cl)c(F)c2)c2ccc(C(=O)N3CCN(c4ccc(CC(=O)O)cn4)CC3(C)C)nc21 [Example 148, 2-(6-(4-(1-(4-chloro-3-fluorophenyl)-3,3-diethyl-2,3-dihydro-1H-pyrrolo[3,2-b]pyridine-5-carbonyl)-3,3-dimethylpiperazin-1-yl)pyridin-3-yl)acetic acid] | < 500 nM
15 | CC1(C)CN(c2ccc(Cl)c(F)c2)c2ccc(C(=O)N3CCN(c4cncc(C(=O)O)c4)CC3(C)C)nc21 [Example 151, 5-(4-(1-(4-chloro-3-fluorophenyl)-3,3-dimethyl-2,3-dihydro-1H-pyrrolo[3,2-b]pyridine-5-carbonyl)-3,3-dimethylpiperazin-1-yl)nicotinic acid] | < 500 nM
16 | CC1(C)CN(c2ccc(C(=O)N3CCN(c4cncc(C(=O)O)c4)CC3(C)C)c(F)c2)c2ccc(C(=O)N3CCN(c4cncc(C(=O)O)c4)CC3(C)C)nc21 [Example 152, 5-(4-(4-(5-(4-(5-carboxypyridin-3-yl)-2,2-dimethylpiperazine-1-carbonyl)-3,3-dimethyl-2,3-dihydro-1H-pyrrolo[3,2-b]pyridin-1-yl)-2-fluorobenzoyl)-3,3-dimethylpiperazin-1-yl)nicotinic acid] | > 10000 nM
17 | CC1CC2(C1)CN(c1ccc(Cl)c(F)c1)c1ccc(C(=O)N3CCN(c4ccc(CC(=O)O)cn4)CC3(C)C)nc12 (centres unmarked) [Example 154, 2-(6-(4-(1′-(4-chloro-3-fluorophenyl)-3-methyl-1′,2′-dihydrospiro[cyclobutane-1,3′-pyrrolo[3,2-b]pyridine]-5′-carbonyl)-3,3-dimethylpiperazin-1-yl)pyridin-3-yl)acetic acid] | < 500 nM
18 | CC(C(=O)O)c1ccc(N2CCN(C(=O)c3ccc4c(n3)C(C)(C)CN4c3ccc(Cl)c(F)c3)C(C)(C)C2)nc1 (centres unmarked) [Example 160, 2-(6-(4-(1-(4-chloro-3-fluorophenyl)-3,3-dimethyl-2,3-dihydro-1H-pyrrolo[3,2-b]pyridine-5-carbonyl)-3,3-dimethylpiperazin-1-yl)pyridin-3-yl)propanoic acid] | < 500 nM
19 | Cc1cc(N2CCN(C(=O)c3ccc4c(n3)C(C)(C)CN4C3CCC(C(N)=O)CC3)C(C)(C)C2)nc(C)c1C(=O)O (centres unmarked) [Example 162, 6-(4-(1-(4-carbamoylcyclohexyl)-3,3-dimethyl-2,3-dihydro-1H-pyrrolo[3,2-b]pyridine-5-carbonyl)-3,3-dimethylpiperazin-1-yl)-2,4-dimethylnicotinic acid] | 500 to 10000 nM
20 | CC1(C)CN(C2CCC(F)(F)CC2)c2ccc(C(=O)N3CCN(c4ccc(CC(=O)O)cn4)CC3(C)C)nc21 [Example 164, 2-(6-(4-(1-(4,4-difluorocyclohexyl)-3,3-dimethyl-2,3-dihydro-1H-pyrrolo[3,2-b]pyridine-5-carbonyl)-3,3-dimethylpiperazin-1-yl)pyridin-3-yl)acetic acid] | < 500 nM
21 | Cc1cc(C)nc(N2CCN(C(=O)c3ccc4c(n3)C(C)(C)CN4C3CCC(C#N)CC3)C(C)(C)C2)c1 (centres unmarked) [Example 165, 4-(5-(4-(4,6-dimethylpyridin-2-yl)-2,2-dimethylpiperazine-1-carbonyl)-3,3-dimethyl-2,3-dihydro-1H-pyrrolo[3,2-b]pyridin-1-yl)cyclohexane-1-carbonitrile] | 500 to 10000 nM
22 | CC1(C)CN(C2CCCC2)c2ccc(C(=O)N3CCN(c4ccc(CC(=O)O)cn4)CC3(C)C)nc21 [Example 167, 2-(6-(4-(1-cyclopentyl-3,3-dimethyl-2,3-dihydro-1H-pyrrolo[3,2-b]pyridine-5-carbonyl)-3,3-dimethylpiperazin-1-yl)pyridin-3-yl)acetic acid] | 500 to 10000 nM
23 | CC1(C)CN(C2CCC(C#N)CC2)c2ccc(C(=O)N3CCN(c4ccc(CC(=O)O)cn4)CC3(C)C)nc21 (centres unmarked) [Example 169, 2-(6-(4-(1-(4-cyanocyclohexyl)-3,3-dimethyl-2,3-dihydro-1H-pyrrolo[3,2-b]pyridine-5-carbonyl)-3,3-dimethylpiperazin-1-yl)pyridin-3-yl)acetic acid] | 500 to 10000 nM
